Experimental data as given in ChEMBL document CHEMBL3739277, “Design, synthesis, and antibacterial evaluation of novel azolylthioether quinolones as MRSA DNA intercalators” (2015).
≈ marks a conversion by molar mass, not a printed value.

Columns and labels:
Assay type in all cases: functional
Cyberlindnera jadinii = test: Antifungal activity against Candida utilis ATCC9950 assessed as growth inhibition incubated at 35 degC for 24 hrs by micro broth dilution method; conditions: Williopsis jadinii, ATCC9950, 24 h
Micrococcus luteus = test: Antibacterial activity against Micrococcus luteus ATCC4698 assessed as growth inhibition incubated at 37 degC for 24 hrs by micro broth dilution method; conditions: ATCC4698, 24 h
[1] = Antibacterial activity against Bacillus proteus ATCC13315 assessed as growth inhibition incubated at 37 degC for 24 hrs by micro broth dilution method; conditions: ATCC13315, 24 h
Pseudomonas aeruginosa = test: Antibacterial activity against Pseudomonas aeruginosa ATCC27853 assessed as growth inhibition incubated at 37 degC for 24 hrs by micro broth dilution method; conditions: ATCC27853, 24 h
Saccharomyces cerevisiae = test: Antifungal activity against Saccharomyces cerevisiae ATCC9763 assessed as growth inhibition incubated at 35 degC for 24 hrs by micro broth dilution method; conditions: ATCC9763, 24 h
Bacillus subtilis = test: Antibacterial activity against Bacillus subtilis ATCC6633 assessed as growth inhibition incubated at 37 degC for 24 hrs by micro broth dilution method; conditions: ATCC6633, 24 h
Candida albicans = test: Antifungal activity against Candida albicans ATCC10231 assessed as growth inhibition incubated at 35 degC for 24 hrs by micro broth dilution method; conditions: ATCC10231, 24 h
Staphylococcus aureus [2] = test: Antibacterial activity against Staphylococcus aureus ATCC25923 assessed as growth inhibition incubated at 37 degC for 24 hrs by micro broth dilution method; conditions: ATCC25923, 24 h
Escherichia coli = test: Antibacterial activity against Escherichia coli JM109 assessed as growth inhibition incubated at 37 degC for 24 hrs by micro broth dilution method; conditions: JM109, 24 h
Aspergillus flavus = test: Antifungal activity against Aspergillus flavus ATCC204304 assessed as growth inhibition incubated at 35 degC for 24 hrs by micro broth dilution method; conditions: ATCC204304, 24 h
Staphylococcus aureus [3] = test: Antibacterial activity against methicillin resistant Staphylococcus aureus N315 assessed as growth inhibition incubated at 37 degC for 24 hrs by micro broth dilution method; conditions: N315, 24 h
[4] = Antifungal activity against Candida mycoderma ATCC9888 assessed as growth inhibition incubated at 35 degC for 24 hrs by micro broth dilution method; conditions: Kregervanrija fluxuum
[5] = Antibacterial activity against Eberthella typhosa ATCC14028 assessed as growth inhibition incubated at 37 degC for 24 hrs by micro broth dilution method; conditions: ATCC14028, 24 h

Structure (SMILES): O=C(O)c1cn(C2CC2)c2cc(N3CCN(CC(O)CSc4ncn(Cc5ccc(Cl)c(Cl)c5)n4)CC3)c(F)cc2c1=O (stereo unspecified)
- MIC80 (Cyberlindnera jadinii): 2 µg/mL (≈ 3.09 µM)
- MIC (Micrococcus luteus): 1 µg/mL (≈ 1.54 µM)
- MIC [1]: 0.5 µg/mL (≈ 0.772 µM)
- MIC (Pseudomonas aeruginosa): 2 µg/mL (≈ 3.09 µM)
- MIC80 (Saccharomyces cerevisiae): 32 µg/mL (≈ 49.4 µM)
- MIC (Bacillus subtilis): 0.5 µg/mL (≈ 0.772 µM)
- MIC80 (Candida albicans): 16 µg/mL (≈ 24.7 µM)
- MIC (Staphylococcus aureus [2]): 0.5 µg/mL (≈ 0.772 µM)
- MIC (Escherichia coli): 1 µg/mL (≈ 1.54 µM)
- MIC80 (Aspergillus flavus): 16 µg/mL (≈ 24.7 µM)
- MIC (Staphylococcus aureus [3]): 1 µg/mL (≈ 1.54 µM)
- MIC80 [4]: 8 µg/mL (≈ 12.4 µM)
- MIC [5]: 0.5 µg/mL (≈ 0.772 µM)

Structure (SMILES): CCn1cc(C(=O)O)c(=O)c2cc(F)c(N3CCN(CC(O)CSc4ncn(Cc5ccc(Cl)c(Cl)c5)n4)CC3)cc21 (stereo unspecified)
- MIC80 (Cyberlindnera jadinii): 128 µg/mL (≈ 201 µM)
- MIC (Micrococcus luteus): 32 µg/mL (≈ 50.4 µM)
- MIC [1]: 8 µg/mL (≈ 12.6 µM)
- MIC (Pseudomonas aeruginosa): 64 µg/mL (≈ 101 µM)
- MIC80 (Saccharomyces cerevisiae): 32 µg/mL (≈ 50.4 µM)
- MIC (Bacillus subtilis): 128 µg/mL (≈ 201 µM)
- MIC80 (Candida albicans): 64 µg/mL (≈ 101 µM)
- MIC (Staphylococcus aureus [2]): 4 µg/mL (≈ 6.29 µM)
- MIC (Escherichia coli): 16 µg/mL (≈ 25.2 µM)
- MIC80 (Aspergillus flavus): 16 µg/mL (≈ 25.2 µM)
- MIC (Staphylococcus aureus [3]): 8 µg/mL (≈ 12.6 µM)
- MIC80 [4]: 128 µg/mL (≈ 201 µM)
- MIC [5]: 64 µg/mL (≈ 101 µM)

Structure (SMILES): O=C(O)c1cn(C2CC2)c2cc(N3CCN(CC4CO4)CC3)c(F)cc2c1=O (stereo unspecified)
- MIC80 (Cyberlindnera jadinii): 2 µg/mL (≈ 5.16 µM)
- MIC (Micrococcus luteus): 2 µg/mL (≈ 5.16 µM)
- MIC [1]: 4 µg/mL (≈ 10.3 µM)
- MIC (Pseudomonas aeruginosa): 2 µg/mL (≈ 5.16 µM)
- MIC80 (Saccharomyces cerevisiae): 1 µg/mL (≈ 2.58 µM)
- MIC (Bacillus subtilis): 8 µg/mL (≈ 20.6 µM)
- MIC80 (Candida albicans): 2 µg/mL (≈ 5.16 µM)
- MIC (Staphylococcus aureus [2]): 4 µg/mL (≈ 10.3 µM)
- MIC (Escherichia coli): 1 µg/mL (≈ 2.58 µM)
- MIC80 (Aspergillus flavus): 1 µg/mL (≈ 2.58 µM)
- MIC (Staphylococcus aureus [3]): 1 µg/mL (≈ 2.58 µM)
- MIC80 [4]: 1 µg/mL (≈ 2.58 µM)
- MIC [5]: 2 µg/mL (≈ 5.16 µM)

Structure (SMILES): OC(Cn1cncn1)(Cn1cncn1)c1ccc(F)cc1F [FLUCONAZOLE]
- MIC80 (Cyberlindnera jadinii): 8 µg/mL (≈ 26.1 µM)
- MIC80 (Saccharomyces cerevisiae): 16 µg/mL (≈ 52.2 µM)
- MIC80 (Candida albicans): 1 µg/mL (≈ 3.27 µM)
- MIC80 (Aspergillus flavus): 256 µg/mL (≈ 836 µM)
- MIC80 [4]: 4 µg/mL (≈ 13.1 µM)

Structure (SMILES): NC1CCN(c2c(F)cc3c(=O)c(C(=O)O)cn(C4CC4)c3c2Cl)C1 (stereo unspecified) [CLINAFLOXACIN]
- MIC (Micrococcus luteus): 0.5 µg/mL (≈ 1.37 µM)
- MIC [1]: 0.5 µg/mL (≈ 1.37 µM)
- MIC (Pseudomonas aeruginosa): 1 µg/mL (≈ 2.73 µM)
- MIC (Bacillus subtilis): 0.5 µg/mL (≈ 1.37 µM)
- MIC (Staphylococcus aureus [2]): 0.5 µg/mL (≈ 1.37 µM)
- MIC (Escherichia coli): 1 µg/mL (≈ 2.73 µM)
- MIC (Staphylococcus aureus [3]): 1 µg/mL (≈ 2.73 µM)
- MIC [5]: 1 µg/mL (≈ 2.73 µM)

Structure (SMILES): Sc1ncn(Cc2ccc(Cl)cc2Cl)n1
- MIC80 (Cyberlindnera jadinii): 512 µg/mL (≈ 1970 µM)
- MIC (Micrococcus luteus): 128 µg/mL (≈ 492 µM)
- MIC [1]: 512 µg/mL (≈ 1970 µM)
- MIC (Pseudomonas aeruginosa): 256 µg/mL (≈ 984 µM)
- MIC80 (Saccharomyces cerevisiae): 512 µg/mL (≈ 1970 µM)
- MIC (Bacillus subtilis): 512 µg/mL (≈ 1970 µM)
- MIC80 (Candida albicans): 512 µg/mL (≈ 1970 µM)
- MIC (Staphylococcus aureus [2]): 512 µg/mL (≈ 1970 µM)
- MIC (Escherichia coli): 256 µg/mL (≈ 984 µM)
- MIC80 (Aspergillus flavus): 256 µg/mL (≈ 984 µM)
- MIC (Staphylococcus aureus [3]): 128 µg/mL (≈ 492 µM)
- MIC80 [4]: 128 µg/mL (≈ 492 µM)
- MIC [5]: 256 µg/mL (≈ 984 µM)

Structure (SMILES): Cn1ccnc1SCC(O)CN1CCN(c2cc3c(cc2F)c(=O)c(C(=O)O)cn3C2CC2)CC1 (stereo unspecified)
- MIC80 (Cyberlindnera jadinii): 128 µg/mL (≈ 255 µM)
- MIC (Micrococcus luteus): 4 µg/mL (≈ 7.97 µM)
- MIC [1]: 2 µg/mL (≈ 3.99 µM)
- MIC (Pseudomonas aeruginosa): 8 µg/mL (≈ 15.9 µM)
- MIC80 (Saccharomyces cerevisiae): 32 µg/mL (≈ 63.8 µM)
- MIC (Bacillus subtilis): 4 µg/mL (≈ 7.97 µM)
- MIC80 (Candida albicans): 4 µg/mL (≈ 7.97 µM)
- MIC (Staphylococcus aureus [2]): 2 µg/mL (≈ 3.99 µM)
- MIC (Escherichia coli): 8 µg/mL (≈ 15.9 µM)
- MIC80 (Aspergillus flavus): 64 µg/mL (≈ 128 µM)
- MIC (Staphylococcus aureus [3]): 2 µg/mL (≈ 3.99 µM)
- MIC80 [4]: 16 µg/mL (≈ 31.9 µM)
- MIC [5]: 1 µg/mL (≈ 1.99 µM)

Structure (SMILES): O=C(O)c1cn(C2CC2)c2cc(N3CCN(CC(O)Cn4cnc(S)n4)CC3)c(F)cc2c1=O (stereo unspecified)
- MIC80 (Cyberlindnera jadinii): 128 µg/mL (≈ 262 µM)
- MIC (Micrococcus luteus): 16 µg/mL (≈ 32.8 µM)
- MIC [1]: 4 µg/mL (≈ 8.19 µM)
- MIC (Pseudomonas aeruginosa): 4 µg/mL (≈ 8.19 µM)
- MIC80 (Saccharomyces cerevisiae): 64 µg/mL (≈ 131 µM)
- MIC (Bacillus subtilis): 4 µg/mL (≈ 8.19 µM)
- MIC80 (Candida albicans): 8 µg/mL (≈ 16.4 µM)
- MIC (Staphylococcus aureus [2]): 2 µg/mL (≈ 4.09 µM)
- MIC (Escherichia coli): 8 µg/mL (≈ 16.4 µM)
- MIC80 (Aspergillus flavus): 64 µg/mL (≈ 131 µM)
- MIC (Staphylococcus aureus [3]): 16 µg/mL (≈ 32.8 µM)
- MIC80 [4]: 32 µg/mL (≈ 65.5 µM)
- MIC [5]: 1 µg/mL (≈ 2.05 µM)

Structure (SMILES): CCn1cc(C(=O)O)c(=O)c2cc(F)c(N3CCN(CC(O)CSc4ncn(Cc5ccc(Cl)cc5Cl)n4)CC3)cc21 (stereo unspecified)
- MIC80 (Cyberlindnera jadinii): 64 µg/mL (≈ 101 µM)
- MIC (Micrococcus luteus): 64 µg/mL (≈ 101 µM)
- MIC [1]: 4 µg/mL (≈ 6.29 µM)
- MIC (Pseudomonas aeruginosa): 16 µg/mL (≈ 25.2 µM)
- MIC80 (Saccharomyces cerevisiae): 16 µg/mL (≈ 25.2 µM)
- MIC (Bacillus subtilis): 64 µg/mL (≈ 101 µM)
- MIC80 (Candida albicans): 64 µg/mL (≈ 101 µM)
- MIC (Staphylococcus aureus [2]): 2 µg/mL (≈ 3.15 µM)
- MIC (Escherichia coli): 8 µg/mL (≈ 12.6 µM)
- MIC80 (Aspergillus flavus): 4 µg/mL (≈ 6.29 µM)
- MIC (Staphylococcus aureus [3]): 2 µg/mL (≈ 3.15 µM)
- MIC80 [4]: 64 µg/mL (≈ 101 µM)
- MIC [5]: 32 µg/mL (≈ 50.4 µM)

Structure (SMILES): O=C(O)c1cn(C2CC2)c2c(Cl)c(N3CCC(NCC(O)CSc4ncn(Cc5ccc(Cl)cc5Cl)n4)C3)c(F)cc2c1=O (stereo unspecified)
- MIC80 (Cyberlindnera jadinii): 16 µg/mL (≈ 23.5 µM)
- MIC (Micrococcus luteus): 4 µg/mL (≈ 5.87 µM)
- MIC [1]: 0.5 µg/mL (≈ 0.733 µM)
- MIC (Pseudomonas aeruginosa): 1 µg/mL (≈ 1.47 µM)
- MIC80 (Saccharomyces cerevisiae): 64 µg/mL (≈ 93.8 µM)
- MIC (Bacillus subtilis): 0.5 µg/mL (≈ 0.733 µM)
- MIC80 (Candida albicans): 16 µg/mL (≈ 23.5 µM)
- MIC (Staphylococcus aureus [2]): 2 µg/mL (≈ 2.93 µM)
- MIC (Escherichia coli): 1 µg/mL (≈ 1.47 µM)
- MIC80 (Aspergillus flavus): 64 µg/mL (≈ 93.8 µM)
- MIC (Staphylococcus aureus [3]): 8 µg/mL (≈ 11.7 µM)
- MIC80 [4]: 4 µg/mL (≈ 5.87 µM)
- MIC [5]: 1 µg/mL (≈ 1.47 µM)

Structure (SMILES): Cn1nnnc1SCC(O)CNC1CCN(c2c(F)cc3c(=O)c(C(=O)O)cn(C4CC4)c3c2Cl)C1 (stereo unspecified)
- MIC80 (Cyberlindnera jadinii): 128 µg/mL (≈ 238 µM)
- MIC (Micrococcus luteus): 1 µg/mL (≈ 1.86 µM)
- MIC [1]: 1 µg/mL (≈ 1.86 µM)
- MIC (Pseudomonas aeruginosa): 1 µg/mL (≈ 1.86 µM)
- MIC80 (Saccharomyces cerevisiae): 1 µg/mL (≈ 1.86 µM)
- MIC (Bacillus subtilis): 1 µg/mL (≈ 1.86 µM)
- MIC80 (Candida albicans): 2 µg/mL (≈ 3.72 µM)
- MIC (Staphylococcus aureus [2]): 2 µg/mL (≈ 3.72 µM)
- MIC (Escherichia coli): 1 µg/mL (≈ 1.86 µM)
- MIC80 (Aspergillus flavus): 1 µg/mL (≈ 1.86 µM)
- MIC (Staphylococcus aureus [3]): 2 µg/mL (≈ 3.72 µM)
- MIC80 [4]: 1 µg/mL (≈ 1.86 µM)
- MIC [5]: 1 µg/mL (≈ 1.86 µM)

Structure (SMILES): O=C(O)c1cn(C2CC2)c2c(Cl)c(N3CCC(NCC4CO4)C3)c(F)cc2c1=O (stereo unspecified)
- MIC80 (Cyberlindnera jadinii): 4 µg/mL (≈ 9.48 µM)
- MIC (Micrococcus luteus): 0.25 µg/mL (≈ 0.593 µM)
- MIC [1]: 0.25 µg/mL (≈ 0.593 µM)
- MIC (Pseudomonas aeruginosa): 0.5 µg/mL (≈ 1.19 µM)
- MIC80 (Saccharomyces cerevisiae): 0.25 µg/mL (≈ 0.593 µM)
- MIC (Bacillus subtilis): 0.25 µg/mL (≈ 0.593 µM)
- MIC80 (Candida albicans): 2 µg/mL (≈ 4.74 µM)
- MIC (Staphylococcus aureus [2]): 0.5 µg/mL (≈ 1.19 µM)
- MIC (Escherichia coli): 0.5 µg/mL (≈ 1.19 µM)
- MIC80 (Aspergillus flavus): 0.5 µg/mL (≈ 1.19 µM)
- MIC80 [4]: 2 µg/mL (≈ 4.74 µM)
